Consider 75 compounds from PubChem BioAssay AID1996.

Molecules are shown by their SMILES. Values after ≈ are worked out from the molar mass of the structure shown.

What is called kinetic solubility is solubility judged after dilution from a stock solution rather than from solid.

The conditions of the series: buffer; pH 7.4; 200.0 µM.
As to `Cc1cc2nc(-c3ccc[nH]c3=O)n(Cc3cccc(F)c3)c2cc1C`, the solubility (kinetic) worked out at 1.3 µg/mL (≈ 3.74 µM).
`CCCCc1ccc(NC(=S)N2CCN(C(=O)OCC)CC2)cc1` yielded a kinetic solubility of 2.2 µg/mL (≈ 6.29 µM).
As to `Fc1ccc(Nc2nc3ccccc3s2)cc1`, the solubility (kinetic) was determined as 0.4 µg/mL (≈ 1.64 µM).
Next, `Cc1cccc(NC(=O)c2ccc(S(=O)(=O)N3CCOCC3)cc2)n1`: 48.2 µg/mL (≈ 133 µM).
Next, `O=S(=O)(Nc1nccs1)c1ccc(NS(=O)(=O)c2c(F)cc(F)c(Cl)c2F)cc1`: greater than 72.6 µg/mL; `CCOC(=O)N1CCc2c(sc3ncn(C)c(=O)c23)C1`: 36.7 µg/mL (≈ 125 µM).
Next, `Cc1cccc2c(SCC(N)=O)nc(-c3ccccc3)nc12`: less than 0.2 µg/mL; `Cc1cc(NC(=O)COc2ccc3ccccc3c2)no1`: 0.6 µg/mL (≈ 2.13 µM).
With `CCC(=O)NCCNc1nc2cc(C)cc(C)c2cc1C#N`, the solubility (kinetic) worked out at 3.7 µg/mL (≈ 12.5 µM).
For the compound `CCCC/C(O)=C1\C(=O)CC(C)(C)CC1=Nc1ccc(N)cc1`, the solubility (kinetic) was greater than 47.2 µg/mL.
The compound `CN(C)c1ccc(/C=N/NC(=O)c2ccc3nc[nH]c3c2)cc1` registered a kinetic solubility greater than 46.1 µg/mL.
The value for `CCOC(=O)COc1c(C(=O)OC)sc2ncccc12` was 35.6 µg/mL (≈ 121 µM); that for `COc1ccc(CCNC(=O)Nc2cccc([N+](=O)[O-])c2)cc1OC` was 39.8 µg/mL (≈ 115 µM); that for `Cc1c(-c2ccc(Cl)cc2)[n+](=O)c2c(n1[O-])CCCC2` was greater than 43.6 µg/mL.
As to `O=C(Nc1ccc(Cl)c(Cl)c1)Nc1ccccc1O`, the solubility (kinetic) was found to be 8.5 µg/mL (≈ 28.6 µM).
Next, `C#CCOC(=O)Nc1ccc(OCC(F)(F)F)nc1`: 19.2 µg/mL (≈ 70 µM); `CCOCCn1c(N2CCCC2)nc2c1c(=O)[nH]c(=O)n2C`: 45.2 µg/mL (≈ 147 µM); `CC(C)C(=O)NS(=O)(=O)c1ccc(NS(C)(=O)=O)cc1`: greater than 48.1 µg/mL.
Turning to `CC(C)Nc1c([N+](=O)[O-])c(=O)oc2ccccc12`, the kinetic solubility is 26.4 µg/mL (≈ 106 µM).
Next, `CC1CN(C(=O)COC(=O)c2ccccc2O)CC(C)O1` (stereo not given): 40.1 µg/mL (≈ 137 µM).
Next, `CC1=CC(C)(C)NC(=S)N1NC(=O)c1ccccc1Cl`: greater than 46.5 µg/mL.
As to `COC(=O)COc1cccc(NC(=O)c2cc(OC)cc(OC)c2)c1`, the solubility (kinetic) is 49.6 µg/mL (≈ 144 µM).
Compound `COc1ccc(NC(=O)CCOc2cc(C)ccc2C)cc1S(=O)(=O)N1CCCCC1` came in with a kinetic solubility of 7.9 µg/mL (≈ 17.7 µM).
The value for `COC1=C(N)C(=O)c2nc(-c3nc(C(=O)O)c(C)c(-c4ccc(OC)c(OC)c4O)c3N)ccc2C1=O` was 74.9 µg/mL (≈ 148 µM).
Next, `Cc1cc(C(=O)OCC(=O)NCc2ccco2)c(C)o1`: greater than 41.6 µg/mL.
Compound `Cc1ccc2nc3c(nc2c1C)C(O)=C3O` displayed a solubility (kinetic) of 24.7 µg/mL (≈ 115 µM).
The value for `COc1ccccc1CNC(=O)COc1ccccc1C` was 38.4 µg/mL (≈ 135 µM); that for `Cc1ccc(OCCCC(=O)NC2CCCCC2)cc1` was 15.7 µg/mL (≈ 57 µM); that for `CNC(=S)Nc1cccc(S(=O)(=O)NCc2ccco2)c1` was greater than 48.8 µg/mL.
In turn, `O=C(NCCN1CCOCC1)c1ccc(Cl)c(S(=O)(=O)NCc2ccccc2)c1` displayed a solubility (kinetic) of 63.2 µg/mL (≈ 144 µM).
In the case of `CC(OC(=O)c1ccc(Cl)nc1)C(=O)Nc1ccc2c(c1)OCO2` (stereo not given), the kinetic solubility came to 11.9 µg/mL (≈ 34.1 µM).
As to `C/C(=C\c1ccccc1)CN1CCN(C)CC1`, the solubility (kinetic) is 18.1 µg/mL (≈ 78.6 µM).
In the case of `Brc1cc2c(cc1CSc1ncccn1)OCO2`, the kinetic solubility is 0.9 µg/mL (≈ 2.77 µM). Against the preceding compound, the solubility kinetic is about 20-fold lower.
Next, `Cc1cc(Cl)ccc1OCC(=O)Nc1ccncc1`: greater than 41.5 µg/mL; `CC(C)(C)NC(=O)COc1ccc(CNCc2ccccn2)cc1.Cl`: greater than 54.6 µg/mL; `COc1ccccc1CCC(=O)NCCCn1ccc2ccccc21`: 27.2 µg/mL (≈ 80.8 µM).
With `O=C(NCCCN1CCOCC1)C(=O)NCc1ccc(Cl)cc1`, the solubility (kinetic) was greater than 51 µg/mL.
`CC(Sc1nncs1)C(=O)Nc1ccc2c(c1)OCCO2` (stereo not given) gave a solubility (kinetic) greater than 48.5 µg/mL.
For `CC1(C2CC2)NC(=O)N(CC(=O)NCC(=O)Nc2ccc(F)c(F)c2F)C1=O` (stereo not given), the kinetic solubility is greater than 59.8 µg/mL.
Regarding `CC(C)(CO)Nc1ncnc2onc(-c3ccc(F)cc3)c12`, the solubility (kinetic) was greater than 45.3 µg/mL.
The value for `CC(=O)N(CCc1ccccc1)Cc1cc2ccc(C)c(C)c2[nH]c1=O` was 17.4 µg/mL (≈ 49.9 µM); that for `O=C1CSc2ccc(C(=O)NCCc3ccc(Cl)cc3Cl)cc2N1` was 3.7 µg/mL (≈ 9.7 µM).
The value for `COc1cc(C(C)=O)ccc1Oc1cnccn1` was greater than 36.6 µg/mL; that for `CC(C)c1ccc(Nc2nc(Cl)nc(NCc3ccco3)n2)cc1` was 0.6 µg/mL (≈ 1.75 µM); that for `CC(=O)N1CCOCCOCCN(C(C)=O)CCOCC1` was greater than 45.4 µg/mL.
Next, `COc1ccc(CC(=O)NCCCCc2ccccc2)cc1OC`: greater than 49.1 µg/mL; `CCC(C(=O)OCC(=O)NCc1ccc2c(c1)OCO2)c1ccccc1` (stereo not given): 46 µg/mL (≈ 129 µM).
`Cc1ccc(C)c(OCCCN2CCc3ccccc3C2)c1.Cl` yielded a kinetic solubility of 14 µg/mL.
For `Cc1ccc(C(=O)O)cc1NS(=O)(=O)c1ccc2ccccc2c1`, the solubility (kinetic) was greater than 51.2 µg/mL.
`O=C(C1COc2ccccc2O1)N1CCCCC1` (stereo not given) showed a kinetic solubility greater than 37.1 µg/mL.
The value for `Cc1ccc(S(=O)(=O)CCC(=O)Nc2ccccc2C)cc1` was 21.9 µg/mL (≈ 69 µM).
Turning to `Cc1ccc(NC(=O)C2CC(O)CN2C(=O)OCc2ccccc2)c(C)c1` (stereo not given), the solubility (kinetic) stood at 37.2 µg/mL (≈ 101 µM). This solubility kinetic is about 1.7-fold higher than that of the compound before.
The value for `Cc1cn(CC(=O)c2ccccc2)c2ccccc12` was 1.2 µg/mL (≈ 4.81 µM); that for `Cc1cc(Cl)n2c(nc3ccccc32)c1C#N` was 15.3 µg/mL (≈ 63.3 µM).
The value for `COc1ccccc1NC(=O)c1cc(Cl)nc2ccccc12` was 3.4 µg/mL (≈ 10.9 µM); that for `Cc1ccc(N2C(=O)CC(Sc3ncccn3)C2=O)cc1C` (stereo not given) was 27.7 µg/mL (≈ 88.4 µM); that for `Cc1ccc(C)c(C(C)NC(=S)NCc2ccc(F)cc2)c1` (stereo not given) was 1.4 µg/mL (≈ 4.42 µM).
Next, `CN1CCC(=NOc2ccc([N+](=O)[O-])cc2)CC1`: greater than 37.4 µg/mL.
Consider `CC(=O)NC(c1ccc(C)cc1)c1cc(Cl)c2cccnc2c1O` (stereo not given), for which the kinetic solubility was less than 0.4 µg/mL.
With `O=C(O)C(=O)O.c1ccc2c(CCNC3CCCCC3)c[nH]c2c1`, the solubility (kinetic) is greater than 49.9 µg/mL.
The value for `O=C(NCc1cccnc1)Nc1ccc(Cl)cc1` was greater than 39.3 µg/mL; that for `CCN1CCN(C(=O)CSc2ccc(C)cc2)CC1` was 41.2 µg/mL (≈ 148 µM); that for `NC(=O)NOCc1cccc(Cl)c1` was greater than 30.1 µg/mL.
Regarding `Cc1ccc(C(=O)N/N=C\c2ccccn2)cn1`, the solubility (kinetic) was greater than 36 µg/mL.
Next, `CC(NC(=O)COc1cccnc1[N+](=O)[O-])c1ccc(Cl)cc1` (stereo not given): greater than 50.4 µg/mL; `CC1SCC(NC(=O)c2ccccc2Cl)CS1` (stereo not given): greater than 43.2 µg/mL; `O=C(NCc1csc(-c2cccs2)n1)c1cccc(Cl)c1`: 7.9 µg/mL (≈ 23.6 µM).
Next, `CC(C)C(=O)NCC(c1ccc2c(c1)OCO2)N1CCOCC1` (stereo not given): greater than 48.1 µg/mL; `COc1cccc(/C=C2\SC(N3CCC(C)CC3)=NC2=O)c1OC`: 21.5 µg/mL (≈ 62.1 µM).
Next, `CN(C)/C=C1\C(=O)Oc2ccccc2C1=O`: 32.4 µg/mL (≈ 149 µM); `O=S(=O)(NC1CCCCCCC1)c1ccccc1F`: 42.5 µg/mL (≈ 149 µM).
The compound `CCOC1=CC(=O)N(Cc2ccccc2)C1` came in with a solubility (kinetic) greater than 32.6 µg/mL.
Next, `Nc1nc(SCC(=O)Nc2cccc(F)c2)n[nH]1`: greater than 40.1 µg/mL; `O=C(CN1CCS(=O)(=O)CC1)NNC(=O)C1CCCCC1`: greater than 47.6 µg/mL; `Cc1ccc(C(=O)CSc2nc(N)cc(=O)[nH]2)cc1C`: 12.8 µg/mL (≈ 44.2 µM).
